Data: PMC7311426, “An amphipathic peptide with antibiotic activity against multidrug-resistant Gram-negative bacteria” (Nature Communications, 2020)
Converted amounts (≈) assume the structure as drawn.

Legend:
E. coli = experiment: microbe, parasite or virus in culture
In short: (§1)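 Broth microdilution in MHB, 2-fold 12-point series from 128 or 64 down to 0.06 or 0.03 μg mL^−1, 5 × 10^5 CFU mL^−1. Extra runs in CAMHB per CLSI and in MHB with 1% agarose; n ≥ 6.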

K. pneumoniae = experiment: microbe, parasite or virus in culture
In short: as §1

P. aeruginosa [1] = experiment: microbe, parasite or virus in culture
In short: as §1

P. aeruginosa [2] = settings: P. aeruginosa ATCC 27853; quality control range printed beside broth microdilution MIC of parent strain; cited from earlier work

## C[C@H]1[C@H](NC(=O)/C(=N\OC(C)(C)C(=O)O)c2csc(N)n2)C(=O)N1S(=O)(=O)O [AZT]
E. coli; E. coli AUD172 parent strain not exposed to drug
  MIC, broth microdilution: >32 µg/mL
E. coli; E. coli AUD172 spontaneous mutant, AA139 selection 4X, plate 2, colony 2, drug-free passage 1
  MIC, broth microdilution: >32 , >32 µg/mL
E. coli; E. coli AUD172 spontaneous mutant, AA139 selection 4X, plate 2, colony 2, drug-free passage 5
  MIC, broth microdilution: >32 , >32 µg/mL
K. pneumoniae; K. pneumoniae 3010 parent strain not exposed to drug
  MIC, broth microdilution: 0.06 µg/mL (≈ 0.138 µM)
K. pneumoniae; K. pneumoniae ST258 parent strain not exposed to drug
  MIC, broth microdilution: >32 µg/mL
K. pneumoniae; K. pneumoniae ST258 spontaneous mutant, AA139 selection 4X, plate 1, colony 1, drug-free passage 1
  MIC, broth microdilution: >32 , >32 µg/mL
K. pneumoniae; K. pneumoniae ST258 spontaneous mutant, AA139 selection 4X, plate 1, colony 1, drug-free passage 5
  MIC, broth microdilution: >32 , >32 µg/mL
P. aeruginosa [1]; P. aeruginosa ATCC 27853 parent strain not exposed to drug
  MIC, broth microdilution: 4 µg/mL (≈ 9.19 µM)
P. aeruginosa [1]; P. aeruginosa ATCC 27853 spontaneous mutant, AA139 selection 4X, plate 1, colony 1, drug-free passage 1
  MIC, broth microdilution: 4, 4 µg/mL
P. aeruginosa [1]; P. aeruginosa ATCC 27853 spontaneous mutant, AA139 selection 4X, plate 1, colony 1, drug-free passage 5
  MIC, broth microdilution: 4, 4 µg/mL
P. aeruginosa [1]; P. aeruginosa ATCC 27853 spontaneous mutant, AA139 selection 4X, plate 1, colony 2, drug-free passage 1
  MIC, broth microdilution: 8 µg/mL (≈ 18.4 µM)
P. aeruginosa [1]; P. aeruginosa ATCC 27853 spontaneous mutant, AA139 selection 4X, plate 1, colony 2, drug-free passage 5
  MIC, broth microdilution: 4 µg/mL (≈ 9.19 µM)
P. aeruginosa [1]; P. aeruginosa ATCC 27853 spontaneous mutant, AA139 selection 4X, plate 1, colony 3, drug-free passage 1
  MIC, broth microdilution: 4 µg/mL (≈ 9.19 µM)
P. aeruginosa [1]; P. aeruginosa ATCC 27853 spontaneous mutant, AA139 selection 4X, plate 1, colony 3, drug-free passage 5
  MIC, broth microdilution: 8 µg/mL (≈ 18.4 µM)
P. aeruginosa [1]; P. aeruginosa ATCC 27853 spontaneous mutant, AA139 selection 4X, plate 1, colony 4, drug-free passage 1
  MIC, broth microdilution: 8 µg/mL (≈ 18.4 µM)
P. aeruginosa [1]; P. aeruginosa ATCC 27853 spontaneous mutant, AA139 selection 4X, plate 1, colony 4, drug-free passage 5
  MIC, broth microdilution: 4 µg/mL (≈ 9.19 µM)
P. aeruginosa [1]; P. aeruginosa ATCC 27853 spontaneous mutant, AA139 selection 4X, plate 1, colony 5, drug-free passage 1
  MIC, broth microdilution: 8 µg/mL (≈ 18.4 µM)
P. aeruginosa [1]; P. aeruginosa ATCC 27853 spontaneous mutant, AA139 selection 4X, plate 1, colony 5, drug-free passage 5
  MIC, broth microdilution: 4 µg/mL (≈ 9.19 µM)
P. aeruginosa [1]; P. aeruginosa ATCC 27853 spontaneous mutant, AA139 selection 4X, plate 1, colony 6, drug-free passage 1
  MIC, broth microdilution: 8 µg/mL (≈ 18.4 µM)
P. aeruginosa [1]; P. aeruginosa ATCC 27853 spontaneous mutant, AA139 selection 4X, plate 1, colony 6, drug-free passage 5
  MIC, broth microdilution: 4 µg/mL (≈ 9.19 µM)
P. aeruginosa [1]; P. aeruginosa ATCC 27853 spontaneous mutant, AA139 selection 4X, plate 2, colony 1, drug-free passage 1
  MIC, broth microdilution: 4, 4 µg/mL
P. aeruginosa [1]; P. aeruginosa ATCC 27853 spontaneous mutant, AA139 selection 4X, plate 2, colony 1, drug-free passage 5
  MIC, broth microdilution: 4, 4 µg/mL
P. aeruginosa [1]; P. aeruginosa ATCC 27853 spontaneous mutant, AA139 selection 4X, plate 2, colony 2, drug-free passage 1
  MIC, broth microdilution: 4, 4 µg/mL
P. aeruginosa [1]; P. aeruginosa ATCC 27853 spontaneous mutant, AA139 selection 4X, plate 2, colony 2, drug-free passage 5
  MIC, broth microdilution: 4, 4 µg/mL
P. aeruginosa [1]; P. aeruginosa ATCC 27853 spontaneous mutant, AA139 selection 4X, plate 2, colony 3, drug-free passage 1
  MIC, broth microdilution: 4, 4 µg/mL
P. aeruginosa [1]; P. aeruginosa ATCC 27853 spontaneous mutant, AA139 selection 4X, plate 2, colony 3, drug-free passage 5
  MIC, broth microdilution: 4, 4 µg/mL
P. aeruginosa [1]; P. aeruginosa ATCC 27853 spontaneous mutant, AA139 selection 4X, plate 2, colony 4, drug-free passage 1
  MIC, broth microdilution: 4, 4 µg/mL
P. aeruginosa [1]; P. aeruginosa ATCC 27853 spontaneous mutant, AA139 selection 4X, plate 2, colony 4, drug-free passage 5
  MIC, broth microdilution: 4, 4 µg/mL
P. aeruginosa [1]; P. aeruginosa ATCC 27853 spontaneous mutant, AA139 selection 8X, plate 1, colony 1, drug-free passage 1
  MIC, broth microdilution: 8 µg/mL (≈ 18.4 µM)
P. aeruginosa [1]; P. aeruginosa ATCC 27853 spontaneous mutant, AA139 selection 8X, plate 1, colony 1, drug-free passage 5
  MIC, broth microdilution: 4 µg/mL (≈ 9.19 µM)
P. aeruginosa [1]; P. aeruginosa ATCC 27853 spontaneous mutant, AA139 selection 8X, plate 1, colony 2, drug-free passage 1
  MIC, broth microdilution: 8, 8 µg/mL
P. aeruginosa [1]; P. aeruginosa ATCC 27853 spontaneous mutant, AA139 selection 8X, plate 1, colony 2, drug-free passage 5
  MIC, broth microdilution: 8, 8 µg/mL
P. aeruginosa [1]; P. aeruginosa ATCC 27853 spontaneous mutant, AA139 selection 8X, plate 1, colony 3, drug-free passage 1
  MIC, broth microdilution: 8, 8 µg/mL
P. aeruginosa [1]; P. aeruginosa ATCC 27853 spontaneous mutant, AA139 selection 8X, plate 1, colony 3, drug-free passage 5
  MIC, broth microdilution: 8, 8 µg/mL
P. aeruginosa [1]; P. aeruginosa ATCC 27853 spontaneous mutant, AA139 selection 8X, plate 1, colony 4, drug-free passage 1
  MIC, broth microdilution: 8, 8 µg/mL
P. aeruginosa [1]; P. aeruginosa ATCC 27853 spontaneous mutant, AA139 selection 8X, plate 1, colony 4, drug-free passage 5
  MIC, broth microdilution: 8, 8 µg/mL
P. aeruginosa [1]; P. aeruginosa ATCC 27853 spontaneous mutant, AA139 selection 8X, plate 1, colony 5, drug-free passage 1
  MIC, broth microdilution: 8, 8 µg/mL
P. aeruginosa [1]; P. aeruginosa ATCC 27853 spontaneous mutant, AA139 selection 8X, plate 1, colony 5, drug-free passage 5
  MIC, broth microdilution: 8, 8 µg/mL
P. aeruginosa [1]; P. aeruginosa UNT 138-1 parent strain not exposed to drug
  MIC, broth microdilution: 4 µg/mL (≈ 9.19 µM)
P. aeruginosa [1]; P. aeruginosa UNT 138-1 spontaneous mutant, AA139 selection 4X, plate 1, colony 1, drug-free passage 1
  MIC, broth microdilution: 4 µg/mL (≈ 9.19 µM)
P. aeruginosa [1]; P. aeruginosa UNT 138-1 spontaneous mutant, AA139 selection 4X, plate 1, colony 1, drug-free passage 5
  MIC, broth microdilution: 8 µg/mL (≈ 18.4 µM)
P. aeruginosa [1]; P. aeruginosa UNT 138-1 spontaneous mutant, AA139 selection 4X, plate 1, colony 2, drug-free passage 1
  MIC, broth microdilution: 4, 4 µg/mL
P. aeruginosa [1]; P. aeruginosa UNT 138-1 spontaneous mutant, AA139 selection 4X, plate 1, colony 2, drug-free passage 5
  MIC, broth microdilution: 4, 4 µg/mL
P. aeruginosa [1]; P. aeruginosa UNT 138-1 spontaneous mutant, AA139 selection 4X, plate 1, colony 3, drug-free passage 1
  MIC, broth microdilution: 4 µg/mL (≈ 9.19 µM)
P. aeruginosa [1]; P. aeruginosa UNT 138-1 spontaneous mutant, AA139 selection 4X, plate 1, colony 3, drug-free passage 5
  MIC, broth microdilution: 8 µg/mL (≈ 18.4 µM)
P. aeruginosa [1]; P. aeruginosa UNT 138-1 spontaneous mutant, AA139 selection 4X, plate 1, colony 4, drug-free passage 1
  MIC, broth microdilution: 8, 8 µg/mL
P. aeruginosa [1]; P. aeruginosa UNT 138-1 spontaneous mutant, AA139 selection 4X, plate 1, colony 4, drug-free passage 5
  MIC, broth microdilution: 8, 8 µg/mL
P. aeruginosa [1]; P. aeruginosa UNT 138-1 spontaneous mutant, AA139 selection 4X, plate 1, colony 5, drug-free passage 1
  MIC, broth microdilution: 4, 4 µg/mL
P. aeruginosa [1]; P. aeruginosa UNT 138-1 spontaneous mutant, AA139 selection 4X, plate 1, colony 5, drug-free passage 5
  MIC, broth microdilution: 4, 4 µg/mL
P. aeruginosa [1]; P. aeruginosa UNT 138-1 spontaneous mutant, AA139 selection 4X, plate 1, colony 6, drug-free passage 1
  MIC, broth microdilution: 4, 4 µg/mL
P. aeruginosa [1]; P. aeruginosa UNT 138-1 spontaneous mutant, AA139 selection 4X, plate 1, colony 6, drug-free passage 5
  MIC, broth microdilution: 4, 4 µg/mL
P. aeruginosa [1]; P. aeruginosa UNT 138-1 spontaneous mutant, AA139 selection 4X, plate 1, colony 7, drug-free passage 1
  MIC, broth microdilution: 4, 4 µg/mL
P. aeruginosa [1]; P. aeruginosa UNT 138-1 spontaneous mutant, AA139 selection 4X, plate 1, colony 7, drug-free passage 5
  MIC, broth microdilution: 4, 4 µg/mL
P. aeruginosa [1]; P. aeruginosa UNT 138-1 spontaneous mutant, AA139 selection 4X, plate 2, colony 1, drug-free passage 1
  MIC, broth microdilution: 8, 8 µg/mL
P. aeruginosa [1]; P. aeruginosa UNT 138-1 spontaneous mutant, AA139 selection 4X, plate 2, colony 1, drug-free passage 5
  MIC, broth microdilution: 8, 8 µg/mL
P. aeruginosa [1]; P. aeruginosa UNT 138-1 spontaneous mutant, AA139 selection 4X, plate 2, colony 2, drug-free passage 1
  MIC, broth microdilution: 4, 4 µg/mL
P. aeruginosa [1]; P. aeruginosa UNT 138-1 spontaneous mutant, AA139 selection 4X, plate 2, colony 2, drug-free passage 5
  MIC, broth microdilution: 4, 4 µg/mL
P. aeruginosa [1]; P. aeruginosa UNT 138-1 spontaneous mutant, AA139 selection 4X, plate 2, colony 3, drug-free passage 1
  MIC, broth microdilution: 4, 4 µg/mL
P. aeruginosa [1]; P. aeruginosa UNT 138-1 spontaneous mutant, AA139 selection 4X, plate 2, colony 3, drug-free passage 5
  MIC, broth microdilution: 4, 4 µg/mL
P. aeruginosa [1]; P. aeruginosa UNT 138-1 spontaneous mutant, AA139 selection 4X, plate 2, colony 4, drug-free passage 1
  MIC, broth microdilution: 4, 4 µg/mL
P. aeruginosa [1]; P. aeruginosa UNT 138-1 spontaneous mutant, AA139 selection 4X, plate 2, colony 4, drug-free passage 5
  MIC, broth microdilution: 4, 4 µg/mL
P. aeruginosa [1]; P. aeruginosa UNT 138-1 spontaneous mutant, AA139 selection 4X, plate 2, colony 5, drug-free passage 1
  MIC, broth microdilution: 4, 4 µg/mL
P. aeruginosa [1]; P. aeruginosa UNT 138-1 spontaneous mutant, AA139 selection 4X, plate 2, colony 5, drug-free passage 5
  MIC, broth microdilution: 4, 4 µg/mL
P. aeruginosa [1]; P. aeruginosa UNT 138-1 spontaneous mutant, AA139 selection 4X, plate 2, colony 6, drug-free passage 1
  MIC, broth microdilution: 4, 4 µg/mL
P. aeruginosa [1]; P. aeruginosa UNT 138-1 spontaneous mutant, AA139 selection 4X, plate 2, colony 6, drug-free passage 5
  MIC, broth microdilution: 4, 4 µg/mL
P. aeruginosa [1]; P. aeruginosa UNT 138-1 spontaneous mutant, AA139 selection 4X, plate 2, colony 7, drug-free passage 1
  MIC, broth microdilution: 4, 4 µg/mL
P. aeruginosa [1]; P. aeruginosa UNT 138-1 spontaneous mutant, AA139 selection 4X, plate 2, colony 7, drug-free passage 5
  MIC, broth microdilution: 4, 4 µg/mL
P. aeruginosa [1]; P. aeruginosa UNT 138-1 spontaneous mutant, AA139 selection 8X, plate 1, colony 1, drug-free passage 1
  MIC, broth microdilution: 4, 4 µg/mL
P. aeruginosa [1]; P. aeruginosa UNT 138-1 spontaneous mutant, AA139 selection 8X, plate 1, colony 1, drug-free passage 5
  MIC, broth microdilution: 4, 4 µg/mL
P. aeruginosa [1]; P. aeruginosa UNT 138-1 spontaneous mutant, AA139 selection 8X, plate 1, colony 2, drug-free passage 1
  MIC, broth microdilution: 4, 4 µg/mL
P. aeruginosa [1]; P. aeruginosa UNT 138-1 spontaneous mutant, AA139 selection 8X, plate 1, colony 2, drug-free passage 5
  MIC, broth microdilution: 4, 4 µg/mL
P. aeruginosa [1]; P. aeruginosa UNT 138-1 spontaneous mutant, AA139 selection 8X, plate 1, colony 3, drug-free passage 1
  MIC, broth microdilution: 4, 4 µg/mL
P. aeruginosa [1]; P. aeruginosa UNT 138-1 spontaneous mutant, AA139 selection 8X, plate 1, colony 3, drug-free passage 5
  MIC, broth microdilution: 4, 4 µg/mL
P. aeruginosa [1]; P. aeruginosa UNT 138-1 spontaneous mutant, AA139 selection 8X, plate 1, colony 4, drug-free passage 1
  MIC, broth microdilution: 4, 4 µg/mL
P. aeruginosa [1]; P. aeruginosa UNT 138-1 spontaneous mutant, AA139 selection 8X, plate 1, colony 4, drug-free passage 5
  MIC, broth microdilution: 4, 4 µg/mL
P. aeruginosa [1]; P. aeruginosa UNT 138-1 spontaneous mutant, AA139 selection 8X, plate 1, colony 5, drug-free passage 1
  MIC, broth microdilution: 4 µg/mL (≈ 9.19 µM)
P. aeruginosa [1]; P. aeruginosa UNT 138-1 spontaneous mutant, AA139 selection 8X, plate 1, colony 5, drug-free passage 5
  MIC, broth microdilution: 8 µg/mL (≈ 18.4 µM)
P. aeruginosa [1]; P. aeruginosa UNT 138-1 spontaneous mutant, AA139 selection 8X, plate 2, colony 1, drug-free passage 1
  MIC, broth microdilution: 4 µg/mL (≈ 9.19 µM)
P. aeruginosa [1]; P. aeruginosa UNT 138-1 spontaneous mutant, AA139 selection 8X, plate 2, colony 1, drug-free passage 5
  MIC, broth microdilution: 8 µg/mL (≈ 18.4 µM)
P. aeruginosa [2]
  MIC Quality control range: 2 to 8 µg/mL
